Data published in patent US10065990B2, “Cyclic peptide compound, and preparation method, pharmaceutical composition and use thereof” (HANGZHOU GUANYU BIO-MEDICAL CO., LTD, priority 2013, dated 2018).
Like-named read-outs stand apart in the source and are kept apart here.

Tests used:
HDAC3 = HDAC3 (Homo sapiens, UniProt O15379); test: HDAC biochemical activity measurement (fluorescent substrate deacetylation);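 further: fluorogenic acetyl-lysine substrate (20 µM) deacetylated by HDAC3, then developer added for 15 min at room temperature, release of fluorophore read at excitation 360 nm, emission 460 nm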
[1] = system: Bel-7402 (human hepatoma cells); test: MTT cancer cell growth inhibition; type: cell-based; conditions: Homo sapiens, Bel-7402, 72 h, MTT, 72 hours incubation, Bel-7402 cells; read-out: GI50 Bel-7402
How it was run: (§1)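 Growth inhibition is scored with MTT after three days of compound treatment spanning 10^−5–10^−10 M. Cells are maintained in DMEM or 1640 medium containing 10% FBS and plated at 1500 per well the previous night; absorbance at 570 nm gives viability, from which GI50 is calculated.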

[2] = system: DU145 (human prostate cancer cells); test: MTT cancer cell growth inhibition; type: cell-based; conditions: Homo sapiens, DU-145, 72 h, MTT, 72 hours incubation; read-out: GI50 Du1
How it was run: as §1

[3] = system: Hela (human cervical cancer cells); test: MTT cancer cell growth inhibition; type: cell-based; conditions: Homo sapiens, HeLa, 72 h, MTT, 72 hours incubation; read-out: GI50 Hela
How it was run: as §1

[4] = system: HCC827 (human non-small cell lung cancer cells); test: MTT cancer cell growth inhibition; type: cell-based; conditions: Homo sapiens, HCC827, 72 h, MTT, 72 hours incubation, HCC827 cells; read-out: GI50 HCC827
How it was run: as §1

[5] = system: K562 (human leukemia cells); test: MTT cancer cell growth inhibition; type: cell-based; conditions: Homo sapiens, K562, 72 h, MTT, 72 hours incubation, K562 cells; read-out: GI50 K562
How it was run: as §1

[6] = system: MCF-7 (human breast cancer cells); test: MTT cancer cell growth inhibition; type: cell-based; conditions: Homo sapiens, MCF7, 72 h, 72 hours incubation, read-out: GI50 MCF
How it was run: as §1

[7] = system: Huh-7 (human hepatoma cells); test: MTT cancer cell growth inhibition; type: cell-based; conditions: Homo sapiens, Huh-7, 72 h, MTT, 72 hours incubation, Huh-7 cells; read-out: GI50 Huh-7
How it was run: as §1

[8] = system: H1975 (non-small cell lung adenocarcinoma); test: MTT cancer cell growth inhibition; type: cell-based; conditions: Homo sapiens, NCI-H1975, 72 h, MTT, 72 hours incubation, H1975 cells; read-out: GI50 H1975
How it was run: as §1

[9] = system: KBM5-T315I (human chronic myelogenous leukemia); test: MTT cancer cell growth inhibition; type: cell-based; conditions: Homo sapiens, 72 h, MTT, 72 hours incubation, KBM5-T315I cells; read-out: GI50 KBM5-T315I
How it was run: as §1

[10] = system: N-87 (human gastric cancer cells); test: MTT cancer cell growth inhibition; type: cell-based; conditions: Homo sapiens, 72 h, MTT, 72 hours incubation, N-87 cells; read-out: GI50 N-87
How it was run: as §1

[11] = system: MDA-MB-231 (breast cancer cells); test: MTT cancer cell growth inhibition; type: cell-based; conditions: Homo sapiens, MDA-MB-231, 72 h, read-out: GI50 MDA-MB-231, MTT, 72 hours incubation, MDA-MB-231 cells
How it was run: as §1

[12] = system: PANC-1 (Pac-1, human pancreatic cancer cells); test: MTT cancer cell growth inhibition; type: cell-based; conditions: Homo sapiens, PANC-1, 72 h, MTT, 72 hours incubation; read-out: GI50 PAN
How it was run: as §1

[13] = system: U937 (human leukemia cells); test: MTT cancer cell growth inhibition; type: cell-based; conditions: Homo sapiens, U-937, 72 h, MTT, 72 hours incubation; read-out: GI50 U93
How it was run: as §1

[14] = system: BGC-823 (human gastric cancer cells); test: MTT cancer cell growth inhibition; type: cell-based; conditions: Homo sapiens, BGC-823, 72 h, MTT, 72 hours incubation; read-out: GI50 BG
How it was run: as §1

[15] = system: lncap (prostate cancer cells); test: MTT cancer cell growth inhibition; type: cell-based; conditions: Homo sapiens, LNCaP, 72 h, MTT, 72 hours incubation; read-out: GI50 lnca
How it was run: as §1

[16] = system: KBM-5 (human chronic myelogenous leukemia); test: MTT cancer cell growth inhibition; type: cell-based; conditions: Homo sapiens, KBM5, 72 h, MTT, 72 hours incubation, KBM-5 cells; read-out: GI50 KBM-5
How it was run: as §1

[17] = system: A549 (human lung cancer cells); test: MTT cancer cell growth inhibition; type: cell-based; conditions: Homo sapiens, A549, 72 h, MTT, 72 hours incubation; read-out: GI50 A54
How it was run: as §1

[18] = system: MOLT-4 (human acute lymphoblastic leukemia cells); test: MTT cancer cell growth inhibition; type: cell-based; conditions: Homo sapiens, MOLT-4, 72 h, MTT, 72 hours incubation; read-out: GI50 Mol
How it was run: as §1

[19] = system: HT1080 (human fibrosarcoma cells); test: MTT cancer cell growth inhibition; type: cell-based; conditions: Homo sapiens, HT-1080, 72 h, MTT, 72 hours incubation; read-out: GI50 HT1
How it was run: as §1

[20] = system: SGC-7901 (human gastric cancer cells); test: MTT cancer cell growth inhibition; type: cell-based; conditions: Homo sapiens, SGC-7901, 72 h, MTT, 72 hours incubation, SGC-7901 cells; read-out: GI50 SGC-7901
How it was run: as §1

HDAC2 = HDAC2 (Homo sapiens, UniProt Q92769); test: HDAC biochemical activity measurement (fluorescent substrate deacetylation);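 further: HDAC2 enzyme with an acetyl-lysine fluorescent substrate, then developer added, fluorescence read at excitation 360 nm and emission 460 nm, inhibition measured across several compound concentrations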; conditions: 37° C. 30 minutes
[21] = read-out: IC50 HDAC3, HDAC3, 37° C. 30 minutes

HDAC3, sequence (O15379 whole entry, species assumed): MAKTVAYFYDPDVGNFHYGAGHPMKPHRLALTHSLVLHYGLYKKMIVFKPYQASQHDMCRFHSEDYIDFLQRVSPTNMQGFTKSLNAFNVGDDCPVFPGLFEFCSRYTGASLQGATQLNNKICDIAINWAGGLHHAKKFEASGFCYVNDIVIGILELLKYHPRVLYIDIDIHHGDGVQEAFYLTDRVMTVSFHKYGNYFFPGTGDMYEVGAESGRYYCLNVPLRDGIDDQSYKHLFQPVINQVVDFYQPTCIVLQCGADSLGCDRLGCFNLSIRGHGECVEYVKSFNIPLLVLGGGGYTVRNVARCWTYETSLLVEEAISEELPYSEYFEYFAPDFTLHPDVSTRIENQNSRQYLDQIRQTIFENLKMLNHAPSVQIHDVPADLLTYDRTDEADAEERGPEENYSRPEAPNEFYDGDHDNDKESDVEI
HDAC3, sequence (Q9Y618 395-489 partner limits assumed, species assumed): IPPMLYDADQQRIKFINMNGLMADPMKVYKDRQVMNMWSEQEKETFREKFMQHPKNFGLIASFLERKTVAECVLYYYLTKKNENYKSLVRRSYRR
HDAC2, sequence (Q92769 whole entry, species assumed): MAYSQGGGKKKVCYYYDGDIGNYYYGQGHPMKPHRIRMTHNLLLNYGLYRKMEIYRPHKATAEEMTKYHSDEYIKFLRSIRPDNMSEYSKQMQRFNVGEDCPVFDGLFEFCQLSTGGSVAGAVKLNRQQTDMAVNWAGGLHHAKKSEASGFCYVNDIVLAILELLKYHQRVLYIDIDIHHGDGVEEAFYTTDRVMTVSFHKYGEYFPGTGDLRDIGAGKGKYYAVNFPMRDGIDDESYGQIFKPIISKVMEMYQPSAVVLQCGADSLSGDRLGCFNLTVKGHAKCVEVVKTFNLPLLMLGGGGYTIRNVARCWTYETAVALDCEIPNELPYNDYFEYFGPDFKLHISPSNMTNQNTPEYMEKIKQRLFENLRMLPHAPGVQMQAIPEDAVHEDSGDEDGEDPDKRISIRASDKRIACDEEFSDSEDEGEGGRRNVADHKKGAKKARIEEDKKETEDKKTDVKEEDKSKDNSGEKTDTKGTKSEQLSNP

| SMILES | GI50 [1] | GI50 [2] | GI50 [3] | GI50 [4] | GI50 [5] | GI50 [6] | GI50 [7] | GI50 [8] | GI50 [9] | GI50 [10] | GI50 [11] | GI50 [12] | GI50 [13] | GI50 [14] | GI50 [15] | GI50 [16] | GI50 [17] | GI50 [19] | GI50 [20] | IC50 (HDAC2) | further results |
| --- | --- | --- | --- | --- | --- | --- | --- | --- | --- | --- | --- | --- | --- | --- | --- | --- | --- | --- | --- | --- | --- |
| C/C=C1\NC(=O)c2cccc(n2)CNC(=O)C[C@@H](/C=C/CCSC(=O)CCCCC)OC(=O)[C@H](C(C)C)NC1=O [Compound 3] | 97 nM | – | 50 nM | 33 nM | 37 nM | 30 nM | 43 nM | 29 nM | 34 nM | 43 nM | 91 nM | 30 nM | – | 60 nM | – | 73 nM | 50 nM | 60 nM | 28 nM | 158 nM | IC50 (HDAC3): 145 nM |
| C=C1NC(=O)c2nc(ccc2F)CNC(=O)C[C@@H](/C=C/CCSC(C)=O)OC(=O)[C@H](C(C)C)NC1=O [Compound 84] | 73 nM | 30 nM | 50 nM | 73 nM | 35 nM | 20 nM | 28 nM | 55 nM | 26 nM | 19 nM | 28 nM | 70 nM | 50 nM | 10 nM | 20 nM | 51 nM | 40 nM | 70 nM | 43 nM | 43 nM | IC50 (HDAC3; [21]): 29 nM; GI50 [18]: 20 nM |
| C/C=C1\NC(=O)c2cccc(n2)CNC(=O)C[C@@H](/C=C/CCSC(=O)CCCCCC)OC(=O)[C@H](C(C)C)NC1=O [Compound 2] | 83 nM | – | 30 nM | 42 nM | 51 nM | 30 nM | 73 nM | 34 nM | 29 nM | 29 nM | 92 nM | 30 nM | – | 60 nM | – | 51 nM | 40 nM | 50 nM | 26 nM | 163 nM | IC50 (HDAC3; [21]): 177 nM |
| CC(=O)SCC/C=C/[C@@H]1CC(=O)NCc2cc(F)cc(n2)C(=O)NC(=C(C)C)C(=O)N[C@@H](C(C)C)C(=O)O1 [Compound 88] | 67 nM | 30 nM | 70 nM | 67 nM | 34 nM | 20 nM | 38 nM | 53 nM | 24 nM | 31 nM | 38 nM | 60 nM | 50 nM | 30 nM | 30 nM | 71 nM | 20 nM | 60 nM | 29 nM | 35 nM | IC50 (HDAC3; [21]): 41 nM; GI50 [18]: 30 nM |

Now from value to molecule, other results behind:

| GI50 [1] | GI50 [2] | GI50 [3] | GI50 [4] | GI50 [5] | GI50 [6] | GI50 [7] | GI50 [8] | GI50 [9] | GI50 [10] | GI50 [11] | GI50 [12] | GI50 [13] | GI50 [14] | GI50 [15] | GI50 [16] | GI50 [17] | GI50 [19] | GI50 [20] | IC50 (HDAC2) | SMILES | further results |
| --- | --- | --- | --- | --- | --- | --- | --- | --- | --- | --- | --- | --- | --- | --- | --- | --- | --- | --- | --- | --- | --- |
| 84 nM | 30 nM | 40 nM | 84 nM | 39 nM | 20 nM | 33 nM | 34 nM | 26 nM | 51 nM | 33 nM | 80 nM | 30 nM | 50 nM | 30 nM | 46 nM | 30 nM | 80 nM | 37 nM | 34 nM | C/C=C1\NC(=O)c2cc(C)cc(n2)CNC(=O)C[C@@H](/C=C/CCSC(C)=O)OC(=O)[C@H](Cc2ccccc2)NC1=O [Example 67] | IC50 (HDAC3): 28 nM; GI50 [18]: 30 nM |
| 81 nM | 30 nM | 40 nM | 81 nM | 36 nM | 30 nM | 29 nM | 52 nM | 38 nM | 26 nM | 29 nM | 80 nM | 50 nM | 20 nM | 20 nM | 49 nM | 40 nM | 80 nM | 48 nM | 49 nM | C/C=C1\NC(=O)c2cc(F)cc(n2)CNC(=O)C[C@@H](/C=C/CCSC(C)=O)OC(=O)[C@H](Cc2ccc(O)cc2)NC1=O [Example 82] | IC50 (HDAC3): 53 nM; GI50 [18]: 20 nM |
| 91 nM | 20 nM | 70 nM | 91 nM | 27 nM | 20 nM | 31 nM | 61 nM | 28 nM | 22 nM | 31 nM | 90 nM | 60 nM | 20 nM | 30 nM | 76 nM | 50 nM | 90 nM | 51 nM | 19 nM | C/C=C1\NC(=O)c2cc(F)cc(n2)CNC(=O)C[C@@H](/C=C/CCSC(C)=O)OC(=O)[C@H](Cc2cccc3ccccc23)NC1=O [Example 79] | IC50 (HDAC3): 27 nM; GI50 [18]: 30 nM |
